Assay results from ChEMBL document CHEMBL3044627, “Residual and sublethal effects of fenpyroximate and pyridaben on the instantaneous rate of increase of Tetranychus urticae” (Crop Prot, 2006).
Calls of active or inactive are those of the source. No cut-off for these calls is given here.

Tests used:
Format in all cases: functional, organism-based
[1] = test system: Tetranychus urticae; test: Acaricidal activity against Tetranychus urticae (two-spotted spider mite) infested kidney bean leaves assessed as decrease in reproduction of survivors applied as spray after 7 days
[2] = test system: Tetranychus urticae; test: Acaricidal activity against Tetranychus urticae (two-spotted spider mite) infested kidney bean leaves assessed as decrease in immature production at 2101 ppm applied as spray after 3 to 6 days
[3] = test system: Tetranychus urticae; test: Acaricidal activity against Tetranychus urticae (two-spotted spider mite) infested kidney bean leaves assessed as decrease in reproduction of survivors applied as spray after 5 days
[4] = test system: Tetranychus urticae; test: Acaricidal activity against Tetranychus urticae (two-spotted spider mite) infested kidney bean leaves assessed as decrease in egg production applied as spray after 3 to 6 days
[5] = test system: Tetranychus urticae; test: Acaricidal activity against Tetranychus urticae (two-spotted spider mite) infested kidney bean leaves assessed as decrease in survival at 2101.3 to 20446.5 ppm applied as spray after 3 days relative to control
[6] = test system: Tetranychus urticae; test: Acaricidal activity against Tetranychus urticae (two-spotted spider mite) infested kidney bean leaves assessed as decrease in reproduction of survivors applied as spray after 3 days
[7] = test system: Tetranychus urticae; test: Acaricidal activity against Tetranychus urticae (two-spotted spider mite) infested kidney bean leaves assessed as decrease in reproduction of survivors applied as spray after 9 days
[8] = test system: Tetranychus urticae; test: Acaricidal activity against Tetranychus urticae (two-spotted spider mite) infested kidney bean leaves assessed as decrease in reproduction of survivors applied as spray after 1 day
[9] = test system: Tetranychus urticae; test: Acaricidal activity against Tetranychus urticae (two-spotted spider mite) infested kidney bean leaves assessed as decrease in survival at 6.4 to 46.6 ppm applied as spray after 7 to 9 days relative to control
[10] = test system: Tetranychus urticae; test: Acaricidal activity against Tetranychus urticae (two-spotted spider mite) infested kidney bean leaves assessed as decrease in survivors of progeny applied as spray after 9 days
[11] = test system: Tetranychus urticae; test: Acaricidal activity against Tetranychus urticae (two-spotted spider mite) infested kidney bean leaves assessed as decrease in survivors of progeny applied as spray after 5 days
[12] = test system: Tetranychus urticae; test: Acaricidal activity against Tetranychus urticae (two-spotted spider mite) infested kidney bean leaves assessed as decrease in survivors of progeny applied as spray after 7 days
[13] = test system: Tetranychus urticae; test: Acaricidal activity against Tetranychus urticae (two-spotted spider mite) infested kidney bean leaves assessed as decrease in survival at 6.4 to 46.6 ppm applied as spray up to 5 days relative to control
[14] = test system: Tetranychus urticae; test: Acaricidal activity against Tetranychus urticae (two-spotted spider mite) infested kidney bean leaves assessed as decrease in survivors of progeny applied as spray after 1 day
[15] = test system: Tetranychus urticae; test: Acaricidal activity against Tetranychus urticae (two-spotted spider mite) infested kidney bean leaves assessed as decrease in survivors of progeny applied as spray after 3 days
[16] = test system: Tetranychus urticae; test: Acaricidal activity against Tetranychus urticae (two-spotted spider mite) infested kidney bean leaves assessed as decrease in immature production at 6.4 to 46.6 ppm applied as spray after 3 to 6 days

**Q.** How did the EC50 [1] turn out when `CC(C)(C)c1ccc(CSc2cnn(C(C)(C)C)c(=O)c2Cl)cc1` [PYRIDABEN] was run?
**A.** 19425.1 ppm

**Q.** What about the Activity [2] of the same molecule?
**A.** Active

**Q.** And the EC50 [3]?
**A.** 19439.6 ppm

**Q.** And the Activity [4]?
**A.** Dose-dependent effect

**Q.** What about the Activity [5] of the same molecule?
**A.** inactive

**Q.** And the EC50 [6]?
**A.** 19162.1 ppm

**Q.** And the EC50 [7]?
**A.** 49880.7 ppm

**Q.** What about the EC50 [8] of the same molecule?
**A.** 9118.1 ppm

**Q.** For `Cc1nn(C)c(Oc2ccccc2)c1/C=N/OCc1ccc(C(=O)OC(C)(C)C)cc1` [FENPYROXYMATE], which EC50 [1] is on record?
**A.** 124 ppm

**Q.** What about the Activity [9] of the same molecule?
**A.** inactive

**Q.** What about the EC50 [3] of the same molecule?
**A.** 130.8 ppm

**Q.** What about the EC50 [10] of the same molecule?
**A.** 104 ppm

**Q.** What about the EC50 [11] of the same molecule?
**A.** 72.7 ppm

**Q.** What about the EC50 [12] of the same molecule?
**A.** 70.1 ppm

**Q.** What about the Activity [13] of the same molecule?
**A.** Active

**Q.** And the EC50 [14]?
**A.** 116.2 ppm

**Q.** What about the EC50 [6] of the same molecule?
**A.** 131.1 ppm

**Q.** And the EC50 [7]?
**A.** 253.7 ppm

**Q.** And the EC50 [15]?
**A.** 99 ppm

**Q.** What about the EC50 [8] of the same molecule?
**A.** 114.6 ppm

**Q.** And the Activity [16]?
**A.** Active
